Measured values taken from PubChem BioAssay AID1963958 (Molecular Pharmacology Branch, DTP, NCI, 2024).

Test system: MDA-MB-231 multicell spheroids, viability
Assay: Anticancer human tumor MDA-MB-231 cell line growth inhibition [PI3K];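 further: spheroids exposed to agents for seven days before reading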;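 on viability, T/C: percent of vehicle control luminescence with DMSO treated spheroids as 100%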
Conditions: for IC50: curve of first compound; for viability, T/C: stronger effect = lower value
Procedure, shortened: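 Tumor cells grown as multi-cell spheroids with HUVEC endothelial cells and MSC fibroblast-like stroma were treated with targeted agents combined with inavolisib, alpelisib, duvelisib or copanlisib. Doses fell in half-log steps from near clinical Cmax, else from 10 microM. Viability was measured.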

[1] = second compound 0.0316 µM, first compound 0.0316 µM
[2] = second compound 0.0316 µM, first compound 0.1 µM
[3] = second compound 0.0316 µM, first compound 0.316 µM
[4] = second compound 0.0316 µM, first compound 1 µM
[5] = second compound 0.0316 µM, first compound 3.16 µM
[6] = second compound 0.0316 µM, first compound 10 µM
[7] = second compound 0.1 µM, first compound 0.0316 µM
[8] = second compound 0.1 µM, first compound 0.1 µM
[9] = second compound 0.1 µM, first compound 0.316 µM
[10] = second compound 0.1 µM, first compound 1 µM
[11] = second compound 0.1 µM, first compound 3.16 µM
[12] = second compound 0.1 µM, first compound 10 µM
[13] = second compound 0.316 µM, first compound 0.0316 µM
[14] = second compound 0.316 µM, first compound 0.1 µM
[15] = second compound 0.316 µM, first compound 0.316 µM
[16] = second compound 0.316 µM, first compound 1 µM
[17] = second compound 0.316 µM, first compound 3.16 µM
[18] = second compound 0.316 µM, first compound 10 µM
[19] = second compound 1 µM, first compound 0.0316 µM
[20] = second compound 1 µM, first compound 0.1 µM
[21] = second compound 1 µM, first compound 0.316 µM
[22] = second compound 1 µM, first compound 1 µM
[23] = second compound 1 µM, first compound 3.16 µM
[24] = second compound 1 µM, first compound 10 µM
[25] = second compound 3.16 µM, first compound 0.0316 µM
[26] = second compound 3.16 µM, first compound 0.1 µM
[27] = second compound 3.16 µM, first compound 0.316 µM
[28] = second compound 3.16 µM, first compound 1 µM
[29] = second compound 3.16 µM, first compound 3.16 µM
[30] = second compound 3.16 µM, first compound 10 µM
[31] = second compound 10 µM, first compound 0.0316 µM
[32] = second compound 10 µM, first compound 0.1 µM
[33] = second compound 10 µM, first compound 0.316 µM
[34] = second compound 10 µM, first compound 1 µM
[35] = second compound 10 µM, first compound 3.16 µM
[36] = second compound 10 µM, first compound 10 µM

Structure (SMILES): C#Cc1c(F)ccc2cc(O)cc(-c3ncc4c(N5CC6CCC(C5)N6)nc(OCC56CCCN5CC(F)C6)nc4c3F)c12 (stereo unspecified) + Cc1nc(NC(=O)N2CCCC2C(N)=O)sc1-c1ccnc(C(C)(C)C(F)(F)F)c1
- IC50 (second compound 0.0316 µM): > 10 µM
- IC50 (second compound 0.1 µM): 7.62 µM
- IC50 (second compound 0.316 µM): 5.67 µM
- IC50 (second compound 1 µM): 1.7 µM
- IC50 (second compound 3.16 µM): 0.847 µM
- IC50 (second compound 10 µM): 0.23 µM
- viability, T/C [1]: 106%
- viability, T/C [2]: 96%
- viability, T/C [3]: 101%
- viability, T/C [4]: 68.3%
- viability, T/C [5]: 75.6%
- viability, T/C [6]: 54.9%
- viability, T/C [7]: 88.8%
- viability, T/C [8]: 87.6%
- viability, T/C [9]: 85.4%
- viability, T/C [10]: 73%
- viability, T/C [11]: 65.5%
- viability, T/C [12]: 45.2%
- viability, T/C [13]: 77.7%
- viability, T/C [14]: 82.8%
- viability, T/C [15]: 69.4%
- viability, T/C [16]: 60.4%
- viability, T/C [17]: 62%
- viability, T/C [18]: 42%
- viability, T/C [19]: 74.1%
- viability, T/C [20]: 69.8%
- viability, T/C [21]: 67.3%
- viability, T/C [22]: 55.2%
- viability, T/C [23]: 43.3%
- viability, T/C [24]: 33.3%
- viability, T/C [25]: 69.6%
- viability, T/C [26]: 65.5%
- viability, T/C [27]: 53.4%
- viability, T/C [28]: 49.6%
- viability, T/C [29]: 42%
- viability, T/C [30]: 28%
- viability, T/C [31]: 64.2%
- viability, T/C [32]: 58.4%
- viability, T/C [33]: 45.3%
- viability, T/C [34]: 36.9%
- viability, T/C [35]: 32%
- viability, T/C [36]: 18.1%

Structure (SMILES): CC(Cn1ccc(-c2ccc(C#N)c(Cl)c2)n1)NC(=O)c1cc(C(C)O)[nH]n1 (stereo unspecified) + Cc1nc(NC(=O)N2CCCC2C(N)=O)sc1-c1ccnc(C(C)(C)C(F)(F)F)c1
- IC50 (second compound 0.0316 µM): > 10 µM
- IC50 (second compound 0.1 µM): > 10 µM
- IC50 (second compound 0.316 µM): > 10 µM
- IC50 (second compound 1 µM): > 10 µM
- IC50 (second compound 3.16 µM): > 10 µM
- IC50 (second compound 10 µM): > 10 µM
- viability, T/C [1]: 92.9%
- viability, T/C [2]: 88.3%
- viability, T/C [3]: 98.9%
- viability, T/C [4]: 93.5%
- viability, T/C [5]: 86.4%
- viability, T/C [6]: 83.3%
- viability, T/C [7]: 86.8%
- viability, T/C [8]: 78.8%
- viability, T/C [9]: 87%
- viability, T/C [10]: 89.3%
- viability, T/C [11]: 86.2%
- viability, T/C [12]: 74.5%
- viability, T/C [13]: 73.2%
- viability, T/C [14]: 71.6%
- viability, T/C [15]: 77.4%
- viability, T/C [16]: 72.5%
- viability, T/C [17]: 68.2%
- viability, T/C [18]: 64.8%
- viability, T/C [19]: 68.6%
- viability, T/C [20]: 70.9%
- viability, T/C [21]: 67.1%
- viability, T/C [22]: 72.3%
- viability, T/C [23]: 66.6%
- viability, T/C [24]: 59.8%
- viability, T/C [25]: 68.4%
- viability, T/C [26]: 67.3%
- viability, T/C [27]: 68.7%
- viability, T/C [28]: 64.6%
- viability, T/C [29]: 61.9%
- viability, T/C [30]: 56.6%
- viability, T/C [31]: 68.3%
- viability, T/C [32]: 58%
- viability, T/C [33]: 60.3%
- viability, T/C [34]: 64.2%
- viability, T/C [35]: 62.8%
- viability, T/C [36]: 49.8%

Structure (SMILES): CC1(C)CCC(Nc2ncc(C(F)(F)F)c(-c3c[nH]c4c(P(C)(C)=O)c(C#N)ccc34)n2)CN1 (stereo unspecified) + Cc1nc(NC(=O)N2CCCC2C(N)=O)sc1-c1ccnc(C(C)(C)C(F)(F)F)c1
- IC50 (second compound 0.0316 µM): 0.0316 µM
- IC50 (second compound 0.1 µM): 0.0316 µM
- IC50 (second compound 0.316 µM): < 0.0316 µM
- IC50 (second compound 1 µM): < 0.0316 µM
- IC50 (second compound 3.16 µM): < 0.0316 µM
- IC50 (second compound 10 µM): < 0.0316 µM
- viability, T/C [1]: 47.6%
- viability, T/C [2]: 42.8%
- viability, T/C [3]: 47.6%
- viability, T/C [4]: 51.2%
- viability, T/C [5]: 54.6%
- viability, T/C [6]: 4.85%
- viability, T/C [7]: 48.5%
- viability, T/C [8]: 44.1%
- viability, T/C [9]: 45.2%
- viability, T/C [10]: 49.9%
- viability, T/C [11]: 52.5%
- viability, T/C [12]: 5.6%
- viability, T/C [13]: 44.5%
- viability, T/C [14]: 42.7%
- viability, T/C [15]: 44.7%
- viability, T/C [16]: 45.5%
- viability, T/C [17]: 47.5%
- viability, T/C [18]: 3.95%
- viability, T/C [19]: 43.4%
- viability, T/C [20]: 43.8%
- viability, T/C [21]: 43.9%
- viability, T/C [22]: 45.4%
- viability, T/C [23]: 44.8%
- viability, T/C [24]: 3.6%
- viability, T/C [25]: 43.5%
- viability, T/C [26]: 44%
- viability, T/C [27]: 42.5%
- viability, T/C [28]: 42.6%
- viability, T/C [29]: 40.4%
- viability, T/C [30]: 4.49%
- viability, T/C [31]: 41.7%
- viability, T/C [32]: 43.4%
- viability, T/C [33]: 40.5%
- viability, T/C [34]: 40.3%
- viability, T/C [35]: 38.1%
- viability, T/C [36]: 3.35%
